From patent publication US9504729B2, “Antiangiogenic small molecules and methods of use” (The United States of America, as represented by the …, priority 2009, dated 2016)

Tested on: angiogenesis genes in dermal microvascular endothelial cells
Assay: Real time RT-PCR of angiogenesis gene expression during endothelial tube formation
Format: cell-based
Details: 1 μM SM, 24 hours
Method: For gene expression studies, three independent experiments were run for each SM tested. 90.000 cells/well (6 wells/treatment) of dermal microvascular endothelial cells (Lonza, Walkersville, Md.) were seeded on polymerized GELTREX™ gel matrix (Invitrogen, Carlsbad, Calif.) in 24 well plates. Wells were immediately treated with the same volume of 1 μM SM or PBS. After 24 hours incubation at 37° C. and 5% CO2, cells were extracted using Cell Recovery Solution (BD Biosciences, San Jose, Calif., Cat. #354253). Total RNA was extracted with the RNeasy Mini Kit (Qiagen, Valencia, Calif., Cat. #74104), and retrotranscribed using […]® First-Strand reverse transcriptase (Invitrogen, Carlsbad, Calif., Cat. #11904-018). The real time PCR reactions were performed in an Opticon 2 cycler (MJ Research, Waltham, Mass.). Amplification was performed in a final volume of 25 μl, containing 2 μl cDNA (1:10 dilution from the reversed transcribed reaction) and 2 μl of primer mixture (10 μM each of forward and reverse primers). Samples were amplified as follows: after initial denaturation at 95 C for 2 minutes, reactions were run for 46 cycles at 95° C. for 30 seconds, 60° C. for 30 seconds, and 72° C. for 45 seconds. Fluorescence was measured in every cycle and a melting curve was run after the PCR by increasing temperature from 50 to 96° C. (in 0.5° C. increments). A defined single peak was obtained for all amplicons, thus confirming the specificity of the amplification.
The genes that were monitored were selected based on their relevance to the angiogenesis process. All experiments were done in triplicate. The results are shown in the volcano plots of FIG. 17. Log 2 fold-change is presented in the X-axis and log 10 P value in the Y-axis.

CCC(=O)OCN1C(=O)C=CC1=O [compound 19630]
Log2 fold-change of gene expression: 1839: −1.2 | Log2 fold-change of gene expression: 4247: 1.0 | Log2 fold-change of gene expression: 5569: −3.0 | Log2 fold-change of gene expression: 8131: 0.6 | Log2 fold-change of gene expression: 9569: −2.3 | Log2 fold-change of gene expression: 10988: 2.5 | Log2 fold-change of gene expression: 23001: 0.4 | Log2 fold-change of gene expression: 55332: −1.1 | Log2 fold-change of gene expression: 57722: 0.2 | Log2 fold-change of gene expression: 58488: 1.2 | Log2 fold-change of gene expression: 90780: −1.2 | Log2 fold-change of gene expression: 134265: −1.6 | Log2 fold-change of gene expression: AKT1: 0.1 | Log2 fold-change of gene expression: ANGPT1: −0.5 | Log2 fold-change of gene expression: ANGPT2: −1.8 | Log2 fold-change of gene expression: ANGPTL3: −5.0 | Log2 fold-change of gene expression: ANGPTL4: −0.2 | Log2 fold-change of gene expression: ANPEP: −0.4 | Log2 fold-change of gene expression: ANTXR1: −0.3 | Log2 fold-change of gene expression: APOE: 3.3 | Log2 fold-change of gene expression: ARHGEF1: 0.2 | Log2 fold-change of gene expression: Acvrl1: −0.6 | Log2 fold-change of gene expression: Adcy4: 0.0 | Log2 fold-change of gene expression: BAL1: −0.9 | Log2 fold-change of gene expression: BMP1: 0.5 | Log2 fold-change of gene expression: C1orf54: −4.8 | Log2 fold-change of gene expression: CALD1: 1.7 | Log2 fold-change of gene expression: CCL2: 2.3 | Log2 fold-change of gene expression: CCL11: −0.3 | Log2 fold-change of gene expression: CD248: 1.3 | Log2 fold-change of gene expression: CDH5: −0.2 | Log2 fold-change of gene expression: CENTD3: 0.6 | Log2 fold-change of gene expression: CLIC1: −0.1 | Log2 fold-change of gene expression: COL4A3: 0.1 | Log2 fold-change of gene expression: COL18A1: 0.4 | Log2 fold-change of gene expression: COMT: −0.7 | Log2 fold-change of gene expression: CST4: 0.8 | Log2 fold-change of gene expression: CTTNBP2NL: −2.3 | Log2 fold-change of gene expression: CXCL3: 12.1 | Log2 fold-change of gene expression: CXCL5: 4.8 | Log2 fold-change of gene expression: CXCL6: −0.5 | Log2 fold-change of gene expression: CXCL9: −1.0 | Log2 fold-change of gene expression: CXCL10: 4.7 | Log2 fold-change of gene expression: Calcr1: −4.3 | Log2 fold-change of gene expression: Caskin2: −2.8 | Log2 fold-change of gene expression: Ccbp2: −0.1 | Log2 fold-change of gene expression: Cldn5: 0.6 | Log2 fold-change of gene expression: DGKG: 5.4 | Log2 fold-change of gene expression: DKK3: −1.5 | Log2 fold-change of gene expression: DLL4: −4.5 | Log2 fold-change of gene expression: DUT: −0.8 | Log2 fold-change of gene expression: EFNA1: 3.7 | Log2 fold-change of gene expression: EFNA3: −0.4 | Log2 fold-change of gene expression: EFNB2: −1.9 | Log2 fold-change of gene expression: EGF: −1.0 | Log2 fold-change of gene expression: ENG: 0.1 | Log2 fold-change of gene expression: EPHB4: −0.8 | Log2 fold-change of gene expression: EREG: 7.6 | Log2 fold-change of gene expression: ESAM1: −3.3 | Log2 fold-change of gene expression: EXTL3: 1.0 | Log2 fold-change of gene expression: Egf17: −3.8 | Log2 fold-change of gene expression: Ehd4: −1.1 | Log2 fold-change of gene expression: Entpd1: −4.9 | Log2 fold-change of gene expression: Epas1: 1.8 | Log2 fold-change of gene expression: EphB1: 0.0 | Log2 fold-change of gene expression: Erg: −1.6 | Log2 fold-change of gene expression: FGF1: −3.0 | Log2 fold-change of gene expression: FGF2: 1.7 | Log2 fold-change of gene expression: FGFR3: −0.2 | Log2 fold-change of gene expression: FIGF: −3.2 | Log2 fold-change of gene expression: FLT1: −2.1 | Log2 fold-change of gene expression: Fgd5: −1.6 | Log2 fold-change of gene expression: GPCR124: −1.7 | Log2 fold-change of gene expression: GRRP1: 0.0 | Log2 fold-change of gene expression: Grp116: −1.9 | Log2 fold-change of gene expression: HAND2: −0.5 | Log2 fold-change of gene expression: HGF: −0.3 | Log2 fold-change of gene expression: HIF1A: −1.7 | Log2 fold-change of gene expression: HPSE: 0.6 | Log2 fold-change of gene expression: Hspa12b: −4.6 | Log2 fold-change of gene expression: ID1: 1.0 | Log2 fold-change of gene expression: ID3: 0.4 | Log2 fold-change of gene expression: IFNA1: 0.4 | Log2 fold-change of gene expression: IFNB1: −0.4 | Log2 fold-change of gene expression: IFNG: 4.7 | Log2 fold-change of gene expression: IGF1: 3.6 | Log2 fold-change of gene expression: IL1B: 0.2 | Log2 fold-change of gene expression: IL6: 3.5 | Log2 fold-change of gene expression: IL8: 3.0 | Log2 fold-change of gene expression: ITGAV: −0.3 | Log2 fold-change of gene expression: ITGB3: −0.9 | Log2 fold-change of gene expression: Icam1: 0.1 | Log2 fold-change of gene expression: Icam2: 0.4 | Log2 fold-change of gene expression: JAG1: −1.2 | Log2 fold-change of gene expression: KDR: −2.7 | Log2 fold-change of gene expression: Kifc1: 3.4 | Log2 fold-change of gene expression: LAMAS5: −0.8 | Log2 fold-change of gene expression: LECT1: −0.4 | Log2 fold-change of gene expression: LEP: −4.5 | Log2 fold-change of gene expression: Lasts2: −0.1 | Log2 fold-change of gene expression: Lrrk1: −2.9 | Log2 fold-change of gene expression: MDK: −1.1 | Log2 fold-change of gene expression: MMP2: 0.5 | Log2 fold-change of gene expression: MMP9: 0.3 | Log2 fold-change of gene expression: MMP11: 0.8 | Log2 fold-change of gene expression: MRC2: 1.6 | Log2 fold-change of gene expression: Mmm2: −2.4 | Log2 fold-change of gene expression: Myo1b: −2.3 | Log2 fold-change of gene expression: NID1: −2.6 | Log2 fold-change of gene expression: NM023516: 0.5 | Log2 fold-change of gene expression: NRP1: −0.5 | Log2 fold-change of gene expression: NRP2: −2.2 | Log2 fold-change of gene expression: Notch4: −1.8 | Log2 fold-change of gene expression: Npr3: 8.3 | Log2 fold-change of gene expression: PALD: −1.1 | Log2 fold-change of gene expression: PDCD2: 0.5 | Log2 fold-change of gene expression: PDGFA: −0.7 | Log2 fold-change of gene expression: PECAM1: −2.6 | Log2 fold-change of gene expression: PGF: −2.4 | Log2 fold-change of gene expression: PLAU: 0.1 | Log2 fold-change of gene expression: PLG: −2.7 | Log2 fold-change of gene expression: PNMT: 0.7 | Log2 fold-change of gene expression: PROK2: −1.3 | Log2 fold-change of gene expression: PTGS1: −2.4 | Log2 fold-change of gene expression: PTPRCAP: 0.4 | Log2 fold-change of gene expression: Pltp: 0.9 | Log2 fold-change of gene expression: Ptprb: −1.6 | Log2 fold-change of gene expression: Ptprm: −1.2 | Log2 fold-change of gene expression: RAMP2: −4.8 | Log2 fold-change of gene expression: RASD2: 0.9 | Log2 fold-change of gene expression: Rasip1: 3.1 | Log2 fold-change of gene expression: S1PR1: −2.6 | Log2 fold-change of gene expression: SERPINF1: −0.8 | Log2 fold-change of gene expression: SPHK1: −0.5 | Log2 fold-change of gene expression: STAB1: −1.0 | Log2 fold-change of gene expression: Sdc4: 2.2 | Log2 fold-change of gene expression: Sdpr: −0.1 | Log2 fold-change of gene expression: Slc43a3: −0.8 | Log2 fold-change of gene expression: Slco2a1: −2.5 | Log2 fold-change of gene expression: TEK: −0.4 | Log2 fold-change of gene expression: TGFA: 1.1 | Log2 fold-change of gene expression: TGFB1: −1.3 | Log2 fold-change of gene expression: TGFB2: −0.5 | Log2 fold-change of gene expression: TGFBR1: −0.1 | Log2 fold-change of gene expression: THBS1: 0.5 | Log2 fold-change of gene expression: THBS2: −0.6 | Log2 fold-change of gene expression: THY1: −11.3 | Log2 fold-change of gene expression: TIMP1: −0.8 | Log2 fold-change of gene expression: TIMP2: −0.9 | Log2 fold-change of gene expression: TIMP3: 0.7 | Log2 fold-change of gene expression: TNF: −0.6 | Log2 fold-change of gene expression: TNS1: 0.6 | Log2 fold-change of gene expression: TNS3: −1.8 | Log2 fold-change of gene expression: TRA2B: 1.5 | Log2 fold-change of gene expression: TYMP: 0.3 | Log2 fold-change of gene expression: VEGFA: 4.2 | Log2 fold-change of gene expression: VEGFC: 0.1 | Log2 fold-change of gene expression: VGLL4: −1.3 | Log2 fold-change of gene expression: Vwf: −1.8 | Log2 fold-change of gene expression: copa: 0.4 | Log2 fold-change of gene expression: itbp4: −0.8 | Log2 fold-change of gene expression: ralb: 0.1 | Log2 fold-change of gene expression: stard9: −0.7 | Log2 fold-change of gene expression: B2M (1st listing (r49)): 0.0 | Log2 fold-change of gene expression: HPRT1 (1st listing (r50)): 0.8 | Log2 fold-change of gene expression: RPL13A (1st listing (r51)): −0.2 | Log2 fold-change of gene expression: GADPH (1st listing (r52)): 0.1 | Log2 fold-change of gene expression: ACTB (1st listing (r53)): 0.1 | Log2 fold-change of gene expression: PLXDC1 (1st listing (r74)): −4.0 | Log2 fold-change of gene expression: TNFAIP2 (1st listing (r91)): 0.2 | Log2 fold-change of gene expression: Robo4 (1st listing (r95)): 0.1 | Log2 fold-change of gene expression: 151516 (1st listing (r134)): 1.2 | Log2 fold-change of gene expression: TNFAIP2 (2nd listing (r92)): −0.4 | Log2 fold-change of gene expression: B2M (2nd listing (r97)): −0.1 | Log2 fold-change of gene expression: HPRT1 (2nd listing (r98)): 0.9 | Log2 fold-change of gene expression: RPL13A (2nd listing (r99)): 0.3 | Log2 fold-change of gene expression: GADPH (2nd listing (r100)): −0.3 | Log2 fold-change of gene expression: ACTB (2nd listing (r101)): −0.3 | Log2 fold-change of gene expression: PLXDC1 (2nd listing (r104)): −5.7 | Log2 fold-change of gene expression: 151516 (2nd listing (r139)): 0.9 | Log2 fold-change of gene expression: Robo4 (2nd listing (r188)): 0.3 | Log2 fold-change of gene expression: B2M (3rd listing (r145)): −1.4 | Log2 fold-change of gene expression: HPRT1 (3rd listing (r146)): 0.2 | Log2 fold-change of gene expression: RPL13A (3rd listing (r147)): 1.0 | Log2 fold-change of gene expression: GADPH (3rd listing (r148)): 0.1 | Log2 fold-change of gene expression: ACTB (3rd listing (r149)): −0.9 | Log2 fold-change of gene expression: B2M (4th listing (r193)): −0.9 | Log2 fold-change of gene expression: HPRT1 (4th listing (r194)): 2.0 | Log2 fold-change of gene expression: RPL13A (4th listing (r195)): 0.4 | Log2 fold-change of gene expression: GADPH (4th listing (r196)): −1.6 | Log2 fold-change of gene expression: ACTB (4th listing (r197)): −1.6
